Test results published in patent publication US10507214B2 (Druggability Technologies IP Holdco Limited, priority 2016, dated 2019).
≈ marks a conversion by molar mass, not a printed value. Like-named read-outs stand apart in the source and are kept apart here.

Columns and labels:
[1] = cited from earlier work
[2] = healthy subjects, within the clinical dose range; cited from earlier work
[3] = cited from earlier work; remark: listed apart in the source
[4] = single dose of 200 mg of current formulation; cited from earlier work
PAMPA permeability = assay type: in vitro ADME; conditions: pH 7, in water, FaSSIF and FeSSIF
[5] = Apparent solubility by UV-VIS spectroscopy after 100 nm filtration; assay type: physicochemical; conditions: thermodynamic from solid; redispersed at 2 mg/mL in ultrapurified water, room temperature
Description: The resulting solutions were filtered by 100 nm disposable syringe filter.

[6] = In-vivo PK test in beagle dogs; conditions: oral, dispersed granulates, beagle dogs following a high-fat meal
[7] = single oral dose of radiolabeled drug

Papp at 4 h (PAMPA permeability) [nm/s]	solubility [5] [µg/mL]	Tmax ([6]; dog, plasma, 5 mg/kg) [h]	t250 ng/ml [6] [min]	SMILES	time of peak plasma levels ([1]; after an oral dose)	effective half-life ([1]; fasted conditions)	dose proportionality of Cmax and AUC ([1]; fasting conditions, up to 200 mg BID)	overall systemic exposure (AUC), intact capsule versus capsule contents sprinkled on applesauce ([1]; healthy adult volunteers)	apparent plasma clearance (CL/F) ([1]; in vivo)	unchanged drug recovered in the urine and feces ([1]; in vivo) [%]	steady-state conditions reached ([1]; multiple dosing) [days]	time of peak plasma levels ([1]; single dose of 200 mg of current formulation, oral) [h]	carboxylic acid metabolite in urine and feces [1, 7]	dose excreted in the feces [1, 7]	dose excreted into the urine [1, 7] [%]	protein bound [2] [%]	solubility in chloroform ([3]; chloroform)	solubility in methanol ([3]; methanol)	solubility in water ([3]; water)	onset of pain relief [4] [h]
–	–	–	–	Cc1ccc(-c2cc(C(F)(F)F)nn2-c2ccc(S(N)(=O)=O)cc2)cc1 [Celecoxib, 4-[5-(4-methylphenyl)-3-(trifluoromethyl)-1H-pyrazol-1-yl] benzenesulfonamide]	approximately 3 hrs	approximately 11 hours	roughly dose-proportional	equivalent	about 500 mL/min	< 3	≤ 5	3	73 % of dose	approximately 57%	~27	~97	soluble	soluble	insoluble	≥ 1
< 2	2.85 (≈ 7.47 µM)	2	45	Cc1ccc(-c2cc(C(F)(F)F)nn2-c2ccc(S(N)(=O)=O)cc2)cc1 [crystalline Celecoxib (micronized)]	–	–	–	–	–	–	–	–	–	–	–	–	–	–	–	–
